Calls of active or inactive are those of the source. The rule behind the calls is not given here.
Biological target: Mitogen-activated protein kinase 9 (Homo sapiens) (UniProt P45984)
Test: Inhibition of JNK2 in hTERT-immortalized human HCA2 cells assessed as c-jun phosphorylation upto 50 uM by ELISA in presence of anisomycin
Type: cell-based

Sequence of Mitogen-activated protein kinase 9 (Homo sapiens) (P45984 whole entry, looked up): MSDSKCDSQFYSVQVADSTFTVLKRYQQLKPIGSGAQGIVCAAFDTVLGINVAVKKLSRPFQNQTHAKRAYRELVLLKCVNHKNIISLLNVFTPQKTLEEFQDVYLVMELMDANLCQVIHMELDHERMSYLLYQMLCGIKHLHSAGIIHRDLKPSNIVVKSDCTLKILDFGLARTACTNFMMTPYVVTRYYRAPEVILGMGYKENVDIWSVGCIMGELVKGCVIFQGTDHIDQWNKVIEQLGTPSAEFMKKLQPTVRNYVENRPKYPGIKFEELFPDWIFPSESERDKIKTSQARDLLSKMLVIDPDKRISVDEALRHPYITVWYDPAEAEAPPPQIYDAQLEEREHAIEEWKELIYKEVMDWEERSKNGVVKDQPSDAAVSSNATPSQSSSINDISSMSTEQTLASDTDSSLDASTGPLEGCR

## Nc1c(C(=O)c2cccc(OC[C@@H](O)CO)c2)cnn1-c1ccc(F)cc1
  Activity: inactive
